[1] abbreviates: disulfide bond, 15-membered ring, I2 (10 eq), CH2Cl2/MeOH 9:1, 0.43 mM.

Where “and” joins values, the source holds several entries; their conditions need not be identical. Identical values can stand only once. Like-named read-outs stand apart in the source and are kept apart here.

The compound “(E)-(1S,10S)-7,7-Cyclopropyl-2-oxa-12,13-dithia-5,8,20,23-tetraaza-bicyclo[8.7.6]tricos-16-ene-3,6,9,19,22-pentaone” had a ring closure, isolated yield (disulfide bond, 15-membered ring, I2, CH2Cl2/MeOH 9:1, 0.2 mM) of 53%. Where the note is “from (3S,4E)-3-hydroxy-7-(tritylthio)hept-4-enoyl-d4Pal-dCys(Trt)-Acc(1-aminocyclopropanecarbonyl)-Gly-OH, ester bond, 16-membered ring, MNBA/DMAP, CH2Cl2/THF, 0.97 mM, 2 steps”, `O=C1CC(/C=C/CCSC(c2ccccc2)(c2ccccc2)c2ccccc2)OC(=O)CNC(=O)C2(CC2)NC(=O)[C@@H](CSC(c2ccccc2)(c2ccccc2)c2ccccc2)NC(=O)[C@@H](Cc2ccncc2)N1` (stereo in doubt) registered a ring closure, isolated yield of 54%. “(E)-(1S,10S,21R)-21-Benzyl-7,7-cyclopropyl-2-oxa-12,13-dithia-5,8,20,23-tetraaza-bicyclo[8.7.6]tricos-16-ene-3,6,9,19,22-pentaone” returned a ring closure, isolated yield under setting [1] of 81%. With “3-((E)-(1S,10S,21R)-7,7-Cyclopropyl-3,6,9,19,22-pentaoxo-2-oxa-12,13-dithia-5,8,20,23-tetraaza-bicyclo[8.7.6]tricos-16-en-21-yl)-propionic acid tert-butyl ester”, the ring closure, isolated yield (disulfide bond, 15-membered ring, I2, CH2Cl2/MeOH 9:1, 0.4 mM, 25.0 °C) came to 65%. On to “3-((E)-(1S,10S,21R)-7,7-Dimethyl-3,6,9,19,22-pentaoxo-2-oxa-12,13-dithia-5,8,20,23-tetraaza-bicyclo[8.7.6]tricos-16-en-21-yl)-propionic acid tert-butyl ester”, for which the ring closure, isolated yield (disulfide bond, 15-membered ring, I2, CH2Cl2/MeOH 9:1, 0.35 mM, 25.0 °C) was found to be 81%. With `CC(C)[C@@H]1NC(=O)[C@@H](CSC(c2ccccc2)(c2ccccc2)c2ccccc2)NC(=O)C2(CC2)NC(=O)C[C@@H](/C=C/CCSC(c2ccccc2)(c2ccccc2)c2ccccc2)OC(=O)CNC1=O`, for the setting “from (3S,4E)-3-hydroxy-7-(tritylthio)hept-4-enoyl-Ac3c-dCys(Trt)-Val-Gly-OH?, ester bond, 16-membered ring, MNBA/DMAP, CH2Cl2/THF, 0.77 mM, 2 steps”, the ring closure, isolated yield worked out at 50%. The compound `O=C1C[C@@H](/C=C/CCSC(c2ccccc2)(c2ccccc2)c2ccccc2)OC(=O)CNC(=O)C2(CC2)NC(=O)[C@@H](CSC(c2ccccc2)(c2ccccc2)c2ccccc2)NC(=O)[C@@H](Cc2cccc(Cl)c2)N1` came in with a ring closure, isolated yield (from (3S,4E)-3-hydroxy-7-(tritylthio)hept-4-enoyl-dPhe(3-Cl)-dCys(Trt)-Acc(1-aminocyclopropanecarbonyl)-Gly-OH, ester bond, 16-membered ring, MNBA/DMAP, CH2Cl2, 1.06 mM) of 40%.

In the case of `CC(C)(C)OC(=O)CC[C@H]1NC(=O)CC(/C=C/CCSC(c2ccccc2)(c2ccccc2)c2ccccc2)OC(=O)CNC(=O)C2(CCC2)NC(=O)C(CSC(c2ccccc2)(c2ccccc2)c2ccccc2)NC1=O` (stereo in doubt), under “from (3S,4E)-3-hydroxy-7-(tritylthio)hept-4-enoyl-dGlu(tBu)-dCys(Trt)-Ac4c-Gly-OH, ester bond, 16-membered ring, MNBA/DMAP, CH2Cl2/THF, 1.13 mM, 2 steps”, the ring closure, isolated yield came out at 51%. Turning to `CC(C)(C)OC(=O)CC[C@H]1NC(=O)C[C@@H](/C=C/CCSC(c2ccccc2)(c2ccccc2)c2ccccc2)OC(=O)CNC(=O)C2(CC2)NC(=O)[C@@H](CSC(c2ccccc2)(c2ccccc2)c2ccccc2)NC1=O`, where the note is “from (E)-(S)-3-hydroxy-7-tritylsulfanyl-hept-4-enoyl-dGlu(OtBu)-dCys(Trt)-Acc-Gly-OH, ester bond, 16-membered ring, MNBA/DMAP, CH2Cl2/THF, 0.85 mM, 25.0 °C, 2 steps”, the ring closure, isolated yield was determined as 29%. Under “from (E)-(S)-3-hydroxy-7-tritylsulfanyl-hept-4-enoyl-dGlu(OtBu)-dCys(Trt)-Aib-Gly-OH, ester bond, 16-membered ring, MNBA/DMAP, CH2Cl2/THF, 0.94 mM, 2 steps”, `CC(C)(C)OC(=O)CC[C@H]1NC(=O)C[C@@H](/C=C/CCSC(c2ccccc2)(c2ccccc2)c2ccccc2)OC(=O)CNC(=O)C(C)(C)NC(=O)[C@@H](CSC(c2ccccc2)(c2ccccc2)c2ccccc2)NC1=O` showed a ring closure, isolated yield of 63%. The compound `O=C1C[C@@H](/C=C/CCSC(c2ccccc2)(c2ccccc2)c2ccccc2)OC(=O)CNC(=O)C2(CC2)NC(=O)[C@@H](CSC(c2ccccc2)(c2ccccc2)c2ccccc2)NC(=O)[C@@H](Cc2cccnc2)N1` returned a ring closure, isolated yield (from (3S,4E)-3-hydroxy-7-(tritylthio)hept-4-enoyl-d3Pal-dCys(Trt)-Acc(1-aminocyclopropanecarbonyl)-Gly-OH?, ester bond, 16-membered ring, MNBA/DMAP, CH2Cl2/THF, 0.67 mM, 2 steps) of 96%. Consider `CC(C)(C)OC(=O)CC[C@H]1NC(=O)C[C@@H](/C=C/CCSC(c2ccccc2)(c2ccccc2)c2ccccc2)OC(=O)CC(O)C2(CC2)NC(=O)[C@@H](CSC(c2ccccc2)(c2ccccc2)c2ccccc2)NC1=O` (stereo partly drawn), for which the ring closure, isolated yield (from (R)-4-{(S)-1-[1-(2-Carboxy-1-hydroxy-ethyl)-cyclopropylcarbamoyl]-2-tritylsulfanyl-ethylcarbamoyl}-4-((E)-(S)-3-hydroxy-7-tritylsulfanyl-hept-4-enoylamino)-butyric acid tert-butyl ester, ester bond, 15-membered ring, MNBA/DMAP, CH2Cl2, 1.07 mM) worked out at 56%. In turn, `CC(C)[C@H]1NC(=O)[C@@H](CSC(c2ccccc2)(c2ccccc2)c2ccccc2)NC(=O)C(C)(C)NC(=O)CC(/C=C/CCSC(c2ccccc2)(c2ccccc2)c2ccccc2)OC(=O)CNC1=O` (stereo in doubt) registered a ring closure, isolated yield (from (3S,4E)-3-hydroxy-7-(tritylthio)hept-4-enoyl-Aib-dCys(Trt)-dVal-Gly-OH, ester bond, 16-membered ring, MNBA/DMAP, CH2Cl2/THF, 1.0 mM, 2 steps) of 47%. Under “disulfide bond, 15-membered ring, I2 (10 eq), CH2Cl2/MeOH 9:1, 0.35 mM”, “(E)-(1S,10S,21R)-7,7-Cyclopropyl-21-pyridin-3-ylmethyl-2-oxa-12,13-dithia-5,8,20,23-tetraaza-bicyclo[8.7.6]tricos-16-ene-3,6,9,19,22-pentaone” had a ring closure, isolated yield of 24%. Consider “3-((E)-(1S,9S,20R)-5-Hydroxy-6,6-cyclopropyl-3,8,18,21-tetraoxo-2-oxa-11,12-dithia-7,19,22-triaza-bicyclo[7.7.6]docos-15-en-20-yl)-propionic acid tert-butyl ester”, for which the ring closure, isolated yield (disulfide bond, 15-membered ring, I2, CH2Cl2/MeOH 9:1, 0.39 mM) was 32% and 26%. As to “(E)-(1S,10S)-7-Isopropyl-21,21-cyclopropyl-2-oxa-12,13-dithia-5,8,20,23-tetraaza-bicyclo[8.7.6]tricos-16-ene-3,6,9,19,22-pentaone”, where the note is “disulfide bond, 15-membered ring, I2, CH2Cl2/MeOH 9:1”, the ring closure, isolated yield turned out to be 76%. Turning to “(E)-(1S,10S,21R)-21-(3-Chloro-benzyl)-7,7-cyclopropyl-2-oxa-12,13-dithia-5,8,20,23-tetraaza-bicyclo[8.7.6]tricos-16-ene-3,6,9,19,22-pentaone”, for the setting “disulfide bond, 15-membered ring, I2, CH2Cl2/MeOH 9:1, 0.19 mM”, the ring closure, isolated yield was determined as 32%. Regarding “3-((E)-(1S,10S,21R)-7-cyclobutyl-3,6,9,19,22-pentaoxo-2-oxa-12,13-dithia-5,8,20,23-tetraaza-bicyclo[8.7.6]tricos-16-en-21-yl)-propionic acid tert-butyl ester”, for the setting “disulfide bond, 15-membered ring, I2, CH2Cl2/MeOH 9:1, 0.46 mM”, the ring closure, isolated yield amounted to 93%.

On to “(E)-(1S,10S,21R)-7-cyclopropyl-21-pyridin-4-ylmethyl-2-oxa-12,13-dithia-5,8,20,23-tetraaza-bicyclo[8.7.6]tricos-16-ene-3,6,9,19,22-pentaone”, for which the ring closure, isolated yield under setting [1] was found to be 2%. Take `O=C1C[C@@H](/C=C/CCSC(c2ccccc2)(c2ccccc2)c2ccccc2)OC(=O)CNC(=O)C2(CC2)NC(=O)[C@@H](CSC(c2ccccc2)(c2ccccc2)c2ccccc2)NC(=O)[C@@H](Cc2ccccc2)N1`: the ring closure, isolated yield (from (3S,4E)-3-hydroxy-7-(tritylthio)hept-4-enoyl-dPhe-dCys(Trt)-Acc(1-aminocyclopropanecarbonyl)-Gly-OH, ester bond, 16-membered ring, MNBA/DMAP, CH2Cl2/THF, 0.83 mM, 2 steps) turned out to be 58%. `O=C1C[C@@H](/C=C/CCSC(c2ccccc2)(c2ccccc2)c2ccccc2)OC(=O)CNC(=O)C2(CC2)NC(=O)[C@@H](CSC(c2ccccc2)(c2ccccc2)c2ccccc2)NC(=O)CN1` yielded a ring closure, isolated yield (from (3S,4E)-3-hydroxy-7-(tritylthio)hept-4-enoyl-Gly-dCys(Trt)-Ac3c-Gly-OH, ester bond, 16-membered ring, MNBA/DMAP, CH2Cl2, 0.85 mM) of 45%.

(Values after patent US8614193.)
